Measurements as given in patent publication US12257287B2, “Glucagon-derived peptide and use thereof” (Tianjin Institute of Pharmaceutical Research Co., Ltd., priority 2018, dated 2025).
Values after ≈ are worked out from the molar mass of the structure shown. Marks after values point to notes of the source that are not given here. Numbered stars: 1 amine (or outer) side, 2 acyl side, 3 side chain; on linkers, the order of the positions; unused ones are H or OH. Square brackets hold non-standard residues; d marks the D form. Side chains are listed from the residue outwards. Peptide text beside a SMILES is read from it. * marks the point of attachment. C20 diacid = O=C(O)CCCCCCCCCCCCCCCCCCC(=O)*; C18 diacid = O=C(O)CCCCCCCCCCCCCCCCC(=O)*; γGlu = O=C(O)[C@H](CCC(=O)[*:2])N[*:1]; AEEA = NCCOCCOCC(=O)O; Aib = CC(C)(N)C(=O)O

Key:
[1] = Glucose tolerance test in glucose-loaded DIO mice; type: in vivo; set-up: AUC reduction rate (%), Table 6: concentration or dose not given beside the values; conditions: for AUC of blood glucose, Table 6: Example 4, DIO mice under glucose load, methods as in Example 3; for AUC reduction rate (%), Table 6: Example 4, compared with model control group, DIO mice under glucose load
Description: DIO mice fasted for 16 h, and 1 h after administration by subcutaneous injection, glucose solution (1 g/kg) was given intraperitoneally for glucose tolerance test. Blood glucose values were measured at 0.5, 1 and 1.5 h after glucose administration. The area under the blood glucose concentration curve (AUC) was calculated and compared with that of the model control group, and the blood glucose inhibition rate (%) was calculated.
(§1) Methods are the same as that in Example 3, the test results of effects on body weight are shown in Table 5, and the effects on blood glucose are shown in Table 6. In the table, 5 #-9 # are compound 27, compound 35, compound 54, compound 57, and compound 66, respectively.

[2] = Effect on body weight of DIO mice after 14 days' administration; type: in vivo, C57BL/6J mice; conditions: positive values indicate a decrease; for body weight change, Table 5: Example 4, DIO mice, 14 days' administration, methods as in Example 3
Description: C57BL/6J mice (n=35), model group (n=30) were fed with H10060 high-fat diet to induce obesity (DIO), blank control group (n=5) were fed with standard diet, both for 34 weeks. One day before the first administration, the model group was randomly divided into groups according to their body weight (average body weight range 45.0-52.0 g), with 5 mice in each group, which respectively were model control group, positive control group (semaglutide), and test sample group (1 #-4 # are compound 1, compound 4, compound 6 and compound 22, respectively). The blank control group and model control group were given saline subcutaneously every day, while the positive control group and test sample group were administrated by subcutaneous injection every day for 14 days. The body weight of the animals was weighed and recorded every day, and the change rate of body weight (%) was calculated by comparing the body weight at the last administration day with the initial body weight. (initial body weight−last body weight)/initial body weight=body weight change rate (%). Calculation formula: […]
Calculated positive values indicate a decrease and negative values indicate an increase.
as §1

[3] = physchem; type: physicochemical
[4] = Short-term administration: food intake and body weight in DIO mice; type: in vivo; conditions: 30 nmol/kg once every 24 h, twice, − decrease; for Rate of change in food intake (%): at 48 hours vs day before administration; for Body weight change: at 48 hours
Description: Method: diet-induced obese mice (DIO) with an average body weight of 52.5 g were divided into model control and test groups, 5 mice in each group. The test samples were dissolved in 10 mM PBS of pH7.4, injected once every 24 h at a dose of 30 nmol/kg, and administered twice. The model group was injected with solvent. Changes in food intake and body weight at 48 hours were measured, and the change rates were calculated compared to the day before administration.

[5] = Accelerated chemical stability in injection solvent system (HPLC-UV); type: physicochemical; conditions: 14 days, phosphate buffer pH 7.3 with Tween 80 and phenol, main peak area vs day 0
Description: The chemical stability of the compounds of the present invention in injection solution systems was evaluated by an accelerated stability test. Methods: an appropriate amount of compound of Example 1 was weighed, and dissolved in 10 mM pH8.5 sodium hydrogen phosphate buffer. The final pH value of the solution was adjusted to 7.3 with 0.1 N hydrochloric acid, and proper amounts of Tween 80 and phenol were added. The mixture was placed at 10° C. and 37° C. for 14 days, and detected by HPLC-UV. The main peak area was obtained by peak area normalization method, and the changes compared with day 0 were investigated. The HPLC detection method was the same as that in Example 6, and the mobile phase gradient was appropriately adjusted according to the situation of chromatographic peak separation.

[6] = target: T1, GC receptor (Homo sapiens, UniProt P47871); assay: GC receptor mediated cAMP production in vitro (HEK293 cells transfected with GC receptor); type: cell-based; conditions: 20 min at 37° C., read-out: GCGR (nM EC50)
T1 construct: expressed in transfected cells; host or cells: HEK293 cells
T1 sequence (P47871 26-477): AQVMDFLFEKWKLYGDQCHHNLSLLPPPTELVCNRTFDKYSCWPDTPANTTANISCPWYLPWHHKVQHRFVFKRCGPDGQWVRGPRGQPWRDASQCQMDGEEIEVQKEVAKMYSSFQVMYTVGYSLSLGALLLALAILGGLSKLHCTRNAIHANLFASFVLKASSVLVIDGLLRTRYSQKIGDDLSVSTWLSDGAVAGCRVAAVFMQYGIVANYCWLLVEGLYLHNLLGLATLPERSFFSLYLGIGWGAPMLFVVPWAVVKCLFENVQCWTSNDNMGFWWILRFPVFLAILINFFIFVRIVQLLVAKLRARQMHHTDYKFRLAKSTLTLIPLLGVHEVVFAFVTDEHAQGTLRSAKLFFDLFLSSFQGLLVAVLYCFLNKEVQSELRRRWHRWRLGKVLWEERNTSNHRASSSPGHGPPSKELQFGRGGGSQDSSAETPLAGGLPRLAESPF
Description: The medium was removed, the cells were lysed, and cAMP values were detected referring to the detection method described for the assay kit.

[7] = pH 7.5, Solubility, pH 7.5, 10 mM phosphate buffer
[8] = pH 7.5, Solubility, pH 7.5, 20 mM phosphate buffer
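Throughout, for Solubility: compound added at 2 mg per mL of phosphate buffer, with the dissolved amount determined in the supernatant.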

Compound	solubility [3, 7] [µg/mL]	solubility [3, 8] [µg/mL]	solubility ([3]; pH 8, Solubility, pH 8.0, 10 mM phosphate buffer) [µg/mL]	solubility ([3]; pH 8, Solubility, pH 8.0, 20 mM phosphate buffer) [µg/mL]	Change in purity % (10° C.) [5] [%]	Change in purity % (37° C.) [5] [%]	EC50 [6] [nM]	AUC of blood glucose, Table 6 [1] [mmol·h/L]	AUC reduction rate (%), Table 6 [1]	body weight change, Table 5 [2]	Rate of change in food intake (%) [4] [%]	Body weight change [4] [g]	AUC of blood glucose, Table 4 ([1]; DIO mice fasted 16 h, glucose 1 g/kg i.p. 1 h after s.c. administration, 0.5, 1, 1.5 h) [mmol·h/L]	AUC reduction rate (%), Table 4 ([1]; blood glucose inhibition rate compared with model control group, DIO mice, glucose 1 g/kg i.p.)	body weight change rate, Table 3 ([2]; DIO mice, subcutaneous injection every day for 14 days, (initial−last)/initial) [%]
HAibQGTFTSDYSKYLEEK*RAREFVEWLLEAGGPSSG-Amid (HXQGTFTSDYSKYLEEKRAREFVEWLLEAGGPSSG; HELM PEPTIDE1{H.[Aib].Q.G.T.F.T.S.D.Y.S.K.Y.L.E.E.K.R.A.R.E.F.V.E.W.L.L.E.A.G.G.P.S.S.G.[am]}|PEPTIDE2{[CCCCCCCCCCCCCCCC(=O)[*:2]].[gGlu].[gGlu]}$PEPTIDE1,PEPTIDE2,17:R3-3:R2$$$V2.0; N-terminus assumed; SMILES CCCCCCCCCCCCCCCC(=O)N[C@@H](CCC(=O)N[C@@H](CCC(=O)NCCCC[C@H](NC(=O)[C@H](CCC(=O)O)NC(=O)[C@H](CCC(=O)O)NC(=O)[C@H](CC(C)C)NC(=O)[C@H](Cc1ccc(O)cc1)NC(=O)[C@H](CCCCN)NC(=O)[C@H](CO)NC(=O)[C@H](Cc1ccc(O)cc1)NC(=O)[C@H](CC(=O)O)NC(=O)[C@H](CO)NC(=O)[C@@H](NC(=O)[C@H](Cc1ccccc1)NC(=O)[C@@H](NC(=O)CNC(=O)[C@H](CCC(N)=O)NC(=O)C(C)(C)NC(=O)[C@@H](N)Cc1c[nH]cn1)[C@@H](C)O)[C@@H](C)O)C(=O)N[C@@H](CCCNC(=N)N)C(=O)N[C@@H](C)C(=O)N[C@@H](CCCNC(=N)N)C(=O)N[C@@H](CCC(=O)O)C(=O)N[C@@H](Cc1ccccc1)C(=O)N[C@H](C(=O)N[C@@H](CCC(=O)O)C(=O)N[C@@H](Cc1c[nH]c2ccccc12)C(=O)N[C@@H](CC(C)C)C(=O)N[C@@H](CC(C)C)C(=O)N[C@@H](CCC(=O)O)C(=O)N[C@@H](C)C(=O)NCC(=O)NCC(=O)N1CCC[C@H]1C(=O)N[C@@H](CO)C(=O)N[C@@H](CO)C(=O)NCC(N)=O)C(C)C)C(=O)O)C(=O)O) [Compound 8, 32; * = -γE-γE-OC16H31]	–	–	–	–	–	–	–	8.11 ± 1.92	59.2** %	24.1	–	–	–	–	–
CCCCCCCCCCCCCCCC(=O)N[C@@H](CCC(=O)N[C@@H](CCC(=O)NCCCC[C@H](NC(=O)[C@H](CCC(=O)O)NC(=O)[C@H](CCC(=O)O)NC(=O)[C@H](CC(C)C)NC(=O)[C@H](Cc1ccc(O)cc1)NC(=O)[C@H](CCCCN)NC(=O)[C@H](CO)NC(=O)[C@H](Cc1ccc(O)cc1)NC(=O)[C@H](CC(=O)O)NC(=O)[C@H](CO)NC(=O)[C@@H](NC(=O)[C@H](Cc1ccccc1)NC(=O)[C@@H](NC(=O)CNC(=O)[C@H](CCC(N)=O)NC(=O)C(C)(C)NC(=O)[C@@H](N)Cc1c[nH]cn1)[C@@H](C)O)[C@@H](C)O)C(=O)N[C@@H](CCCNC(=N)N)C(=O)N[C@@H](C)C(=O)N[C@@H](CCCNC(=N)N)C(=O)N[C@@H](CCC(=O)O)C(=O)N[C@@H](Cc1ccccc1)C(=O)N[C@H](C(=O)N[C@@H](C)C(=O)N[C@@H](Cc1c[nH]c2ccccc12)C(=O)N[C@@H](CC(C)C)C(=O)N[C@@H](CC(C)C)C(=O)N[C@@H](CCC(=O)O)C(=O)NCC(=O)NCC(=O)N1CCC[C@H]1C(=O)N[C@@H](CO)C(=O)N[C@@H](CO)C(=O)NCC(N)=O)C(C)C)C(=O)O)C(=O)O [Compound 9] (HELM PEPTIDE1{H.[Aib].Q.G.T.F.T.S.D.Y.S.K.Y.L.E.E.K.R.A.R.E.F.V.A.W.L.L.E.G.G.P.S.S.G.[am]}|PEPTIDE2{[CCCCCCCCCCCCCCCC(=O)[*:2]].[gGlu].[gGlu]}$PEPTIDE1,PEPTIDE2,17:R3-3:R2$$$V2.0)	1500 (≈ 347 µM)	1070 (≈ 247 µM)	> 2000	1760 (≈ 407 µM)	–	–	–	8.71 ± 2.10	56.2** %	19.9	–	–	–	–	–
semaglutide [reference compound]	–	–	–	–	–	–	–	8.33 ± 1.09	58.1** %	16.29	–	–	8.97 ± 1.27	57.7** %	13.20

Second part, led by results:

solubility [3, 7] [µg/mL]	solubility [3, 8] [µg/mL]	solubility ([3]; pH 8, Solubility, pH 8.0, 10 mM phosphate buffer) [µg/mL]	solubility ([3]; pH 8, Solubility, pH 8.0, 20 mM phosphate buffer) [µg/mL]	Change in purity % (10° C.) [5] [%]	Change in purity % (37° C.) [5] [%]	EC50 [6] [nM]	Compound	AUC of blood glucose, Table 6 [1] [mmol·h/L]	AUC reduction rate (%), Table 6 [1]	body weight change, Table 5 [2]	Rate of change in food intake (%) [4] [%]	Body weight change [4] [g]	AUC of blood glucose, Table 4 ([1]; DIO mice fasted 16 h, glucose 1 g/kg i.p. 1 h after s.c. administration, 0.5, 1, 1.5 h) [mmol·h/L]	AUC reduction rate (%), Table 4 ([1]; blood glucose inhibition rate compared with model control group, DIO mice, glucose 1 g/kg i.p.)	body weight change rate, Table 3 ([2]; DIO mice, subcutaneous injection every day for 14 days, (initial−last)/initial) [%]
> 2000	> 2000	–	–	−2.8	−6.9	0.033	CC(C)C[C@H](NC(=O)[C@H](Cc1c[nH]c2ccccc12)NC(=O)[C@H](C)NC(=O)[C@@H](NC(=O)[C@H](Cc1ccccc1)NC(=O)[C@H](CCC(=O)O)NC(=O)[C@H](CCCCN)NC(=O)[C@H](C)NC(=O)[C@H](C)NC(=O)[C@H](CCCNC(=N)N)NC(=O)[C@H](CCC(=O)O)NC(=O)[C@H](CC(=O)O)NC(=O)[C@H](CC(C)C)NC(=O)[C@H](Cc1ccc(O)cc1)NC(=O)[C@H](CCCCN)NC(=O)[C@H](CO)NC(=O)[C@H](CCCCNC(=O)COCCOCCNC(=O)COCCOCCNC(=O)CC[C@H](NC(=O)CCCCCCCCCCCCCCCCCCC(=O)O)C(=O)O)NC(=O)[C@H](CC(=O)O)NC(=O)[C@H](CO)NC(=O)[C@@H](NC(=O)[C@H](Cc1ccccc1)NC(=O)[C@@H](NC(=O)CNC(=O)[C@H](CCC(N)=O)NC(=O)C(C)(C)NC(=O)[C@@H](N)Cc1c[nH]cn1)[C@@H](C)O)[C@@H](C)O)C(C)C)C(=O)N[C@@H](CCC(=O)O)C(=O)N[C@@H](C)C(=O)NCC(=O)NCC(=O)N1CCC[C@H]1C(=O)N[C@@H](CO)C(=O)N[C@@H](CO)C(=O)NCC(N)=O [Compound 13] (H-H[Aib]QGTFTSDK([AEEA-AEEA-γGlu-C20 diacid])SKYLDERAAKEFVAWLEAGGPSSG-NH2; N-terminus assumed)	–	–	–	−67	-2.3	–	–	–
> 2000	> 2000	–	–	−2.0	−5.7	0.018	CC(C)C[C@H](NC(=O)[C@H](Cc1c[nH]c2ccccc12)NC(=O)[C@H](C)NC(=O)[C@@H](NC(=O)[C@H](Cc1ccccc1)NC(=O)[C@H](CCC(=O)O)NC(=O)[C@H](CCCCN)NC(=O)[C@H](C)NC(=O)[C@H](C)NC(=O)[C@H](CCCNC(=N)N)NC(=O)[C@H](CCC(=O)O)NC(=O)[C@H](CCC(=O)O)NC(=O)[C@H](CC(C)C)NC(=O)[C@H](Cc1ccc(O)cc1)NC(=O)[C@H](CCCCN)NC(=O)[C@H](CO)NC(=O)[C@H](CCCCNC(=O)COCCOCCNC(=O)COCCOCCNC(=O)CC[C@H](NC(=O)CCCCCCCCCCCCCCCCC(=O)O)C(=O)O)NC(=O)[C@H](CC(=O)O)NC(=O)[C@H](CO)NC(=O)[C@@H](NC(=O)[C@H](Cc1ccccc1)NC(=O)[C@@H](NC(=O)CNC(=O)[C@H](CCC(N)=O)NC(=O)C(C)(C)NC(=O)[C@@H](N)Cc1c[nH]cn1)[C@@H](C)O)[C@@H](C)O)C(C)C)C(=O)N[C@@H](CCC(=O)O)C(=O)N[C@@H](C)C(=O)NCC(=O)NCC(=O)N1CCC[C@H]1C(=O)N[C@@H](CO)C(=O)N[C@@H](CO)C(=O)NCC(N)=O [Compound 22] (H-H[Aib]QGTFTSDK([AEEA-AEEA-γGlu-C18 diacid])SKYLEERAAKEFVAWLEAGGPSSG-NH2; N-terminus assumed)	–	–	–	−62	-2.6	–	–	–
